Key:
Assay in all cases: Test E pre-/postemergence herbicide test
prickly sida = format: in vivo, Sida spinosa
Summary of the method: (§1)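 Ratings from 0 (no effect) to 100 (complete control) were assigned by visual comparison with untreated plants 12 to 14 days after application. Test chemicals, formulated with surfactant in a non-phytotoxic solvent blend, were applied to soil after planting or to foliage of 2–18 cm plants.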

purple nutsedge = format: in vivo, Cyperus rotundus
Summary of the method: as §1

bipinnate beggarticks = format: in vivo, Bidens bipinnata; conditions: scale 0 to 100
Summary of the method: as §1

bermudagrass = format: in vivo, Cynodon dactylon
Summary of the method: as §1

annual bluegrass = format: in vivo, Poa annua
Summary of the method: as §1

itchgrass = format: in vivo, Rottboellia cochinchinensis
Summary of the method: as §1

pitted morningglory = format: in vivo, Ipomoea lacunosa
Summary of the method: as §1

Surinam grass = format: in vivo, Urochloa decumbens
Summary of the method: as §1

quackgrass = format: in vivo, Elytrigia repens
Summary of the method: as §1

Russian thistle = format: in vivo, Salsola kali
Summary of the method: as §1

common sowthistle = format: in vivo, Sonchus oleraceous
Summary of the method: as §1

[1] = Postemergence, 500 g ai/ha, scale 0 to 100
[2] = Postemergence, 250 g ai/ha, scale 0 to 100
[3] = Preemergence, 62 g ai/ha, scale 0 to 100
[4] = Preemergence, 125 g ai/ha, scale 0 to 100
[5] = Preemergence, 250 g ai/ha, scale 0 (no effect) to 100 (complete control)
[6] = Preemergence, 500 g ai/ha, scale 0 (no effect) to 100 (complete control)
[7] = postemergence, 125 g ai/ha, scale 0 to 100
[8] = postemergence, 62 g ai/ha, scale 0 to 100
[9] = Preemergence, 375 g ai/ha, scale 0 (no effect) to 100 (complete control)

`CCn1nc(C2(C)CC2)cc1C(=O)Nc1cc(C(=O)N(C)C)ccc1F` [Compound 299] was tested, and the “Plant response rating, Prickly Sida” value (prickly sida; [1]) was 95, the “Plant response rating, Prickly Sida” value (prickly sida; [2]) was 95 and the “Plant response rating, Prickly Sida” value (prickly sida; [3]) was 85. For the same molecule, the “Plant response rating, Prickly Sida” value (prickly sida; [4]) was 85, the “Plant response rating, Prickly Sida” value (prickly sida; [5]) was 100 and the “Plant response rating, Prickly Sida” value (prickly sida; [6]) was 100. The “Plant response rating, Prickly Sida” value (prickly sida; [7]) was 95, the “Plant response rating, Prickly Sida” value (prickly sida; [8]) was 60 and the “Plant response rating, Nutsedge, Purple” value (purple nutsedge; [1]) was 85. For the same molecule, the “Plant response rating, Nutsedge, Purple” value (purple nutsedge; [2]) was 80, the “Plant response rating, Nutsedge, Purple” value (purple nutsedge; [3]) was 50 and the “Plant response rating, Nutsedge, Purple” value (purple nutsedge; [5]) was 80. The “Plant response rating, Nutsedge, Purple” value (purple nutsedge; [7]) was 75, the “Plant response rating, Nutsedge, Purple” value (purple nutsedge; [8]) was 40 and the “Plant response rating, Beggarticks, Bip.” value (bipinnate beggarticks; Postemergence, 500 g ai/ha) was 80. The “Plant response rating, Beggarticks, Bip.” value (bipinnate beggarticks; Postemergence, 250 g ai/ha) was 60, the “Plant response rating, Beggarticks, Bip.” value (bipinnate beggarticks; postemergence, 125 g ai/ha) was 60 and the “Plant response rating, Beggarticks, Bip.” value (bipinnate beggarticks; postemergence, 62 g ai/ha) was 40. For the same molecule, the “Plant response rating, Bermudagrass” value (bermudagrass; [1]) was 80, the “Plant response rating, Bermudagrass” value (bermudagrass; [2]) was 70 and the “Plant response rating, Bermudagrass” value (bermudagrass; [3]) was 80. For the same molecule, the “Plant response rating, Bermudagrass” value (bermudagrass; [4]) was 100, the “Plant response rating, Bermudagrass” value (bermudagrass; [5]) was 100 and the “Plant response rating, Bermudagrass” value (bermudagrass; [6]) was 95. For the same molecule, the “Plant response rating, Bermudagrass” value (bermudagrass; [7]) was 50, the “Plant response rating, Bermudagrass” value (bermudagrass; [8]) was 40 and the “Plant response rating, Bluegrass” value (annual bluegrass; [1]) was 100. For the same molecule, the “Plant response rating, Bluegrass” value (annual bluegrass; [2]) was 80, the “Plant response rating, Bluegrass” value (annual bluegrass; [3]) was 85 and the “Plant response rating, Bluegrass” value (annual bluegrass; [4]) was 95. For the same molecule, the “Plant response rating, Bluegrass” value (annual bluegrass; [5]) was 95, the “Plant response rating, Bluegrass” value (annual bluegrass; [6]) was 100 and the “Plant response rating, Bluegrass” value (annual bluegrass; [7]) was 70. For the same molecule, the “Plant response rating, Bluegrass” value (annual bluegrass; [8]) was 60, the “Plant response rating, Itchgrass” value (itchgrass; [1]) was 80 and the “Plant response rating, Itchgrass” value (itchgrass; [2]) was 75. The “Plant response rating, Itchgrass” value (itchgrass; [3]) was 60, the “Plant response rating, Itchgrass” value (itchgrass; [4]) was 75 and the “Plant response rating, Itchgrass” value (itchgrass; [5]) was 90. For the same molecule, the “Plant response rating, Itchgrass” value (itchgrass; [6]) was 100, the “Plant response rating, Itchgrass” value (itchgrass; [7]) was 70 and the “Plant response rating, Itchgrass” value (itchgrass; [8]) was 30. The “Plant response rating, Morningglory” value (pitted morningglory; [1]) was 60, the “Plant response rating, Morningglory” value (pitted morningglory; [2]) was 40 and the “Plant response rating, Morningglory” value (pitted morningglory; [3]) was 10. The “Plant response rating, Morningglory” value (pitted morningglory; [4]) was 75, the “Plant response rating, Morningglory” value (pitted morningglory; [5]) was 90 and the “Plant response rating, Morningglory” value (pitted morningglory; [7]) was 20. The “Plant response rating, Morningglory” value (pitted morningglory; [8]) was 10, the “Plant response rating, Surinam Grass” value (Surinam grass; [1]) was 90 and the “Plant response rating, Surinam Grass” value (Surinam grass; [2]) was 75. The “Plant response rating, Surinam Grass” value (Surinam grass; [4]) was 95, the “Plant response rating, Surinam Grass” value (Surinam grass; [6]) was 100 and the “Plant response rating, Surinam Grass” value (Surinam grass; [7]) was 75. The “Plant response rating, Surinam Grass” value (Surinam grass; [8]) was 70, the “Plant response rating, Quackgrass” value (quackgrass; [1]) was 100 and the “Plant response rating, Quackgrass” value (quackgrass; [2]) was 85. For the same molecule, the “Plant response rating, Quackgrass” value (quackgrass; [3]) was 80, the “Plant response rating, Quackgrass” value (quackgrass; [4]) was 80 and the “Plant response rating, Quackgrass” value (quackgrass; [5]) was 95. The “Plant response rating, Quackgrass” value (quackgrass; [6]) was 100, the “Plant response rating, Quackgrass” value (quackgrass; [7]) was 75 and the “Plant response rating, Quackgrass” value (quackgrass; [8]) was 20. For the same molecule, the “Plant response rating, Thistle” value (Russian thistle; [1]) was 90, the “Plant response rating, Thistle” value (Russian thistle; [2]) was 70 and the “Plant response rating, Thistle” value (Russian thistle; [4]) was 100. The “Plant response rating, Sowthistle” value (common sowthistle; [2]) was 95, the “Plant response rating, Sowthistle” value (common sowthistle; [3]) was 100 and the “Plant response rating, Sowthistle” value (common sowthistle; [4]) was 100. The “Plant response rating, Sowthistle” value (common sowthistle; [5]) was 100, the “Plant response rating, Sowthistle” value (common sowthistle; [6]) was 95 and the “Plant response rating, Sowthistle” value (common sowthistle; [7]) was 85. The “Plant response rating, Sowthistle” value (common sowthistle; [8]) was 30.

For `CCn1nc(C(C)(C)C)cc1C(=O)Nc1cc(C(=S)N(C)C)ccc1F` [Compound 294], the “Plant response rating, Prickly Sida” value (prickly sida; [1]) was 100, the “Plant response rating, Prickly Sida” value (prickly sida; [2]) was 80 and the “Plant response rating, Prickly Sida” value (prickly sida; [4]) was 100. The “Plant response rating, Prickly Sida” value (prickly sida; [5]) was 100, the “Plant response rating, Prickly Sida” value (prickly sida; [9]) was 100 and the “Plant response rating, Prickly Sida” value (prickly sida; [6]) was 100. The “Plant response rating, Prickly Sida” value (prickly sida; [7]) was 70, the “Plant response rating, Prickly Sida” value (prickly sida; [8]) was 50 and the “Plant response rating, Nutsedge, Purple” value (purple nutsedge; [1]) was 90. For the same molecule, the “Plant response rating, Nutsedge, Purple” value (purple nutsedge; [2]) was 80, the “Plant response rating, Nutsedge, Purple” value (purple nutsedge; [4]) was 80 and the “Plant response rating, Nutsedge, Purple” value (purple nutsedge; [5]) was 80. For the same molecule, the “Plant response rating, Nutsedge, Purple” value (purple nutsedge; [9]) was 80, the “Plant response rating, Nutsedge, Purple” value (purple nutsedge; [6]) was 90 and the “Plant response rating, Nutsedge, Purple” value (purple nutsedge; [7]) was 70. For the same molecule, the “Plant response rating, Nutsedge, Purple” value (purple nutsedge; [8]) was 50, the “Plant response rating, Beggarticks, Bip.” value (bipinnate beggarticks; Postemergence, 500 g ai/ha) was 75 and the “Plant response rating, Beggarticks, Bip.” value (bipinnate beggarticks; Postemergence, 250 g ai/ha) was 70. The “Plant response rating, Beggarticks, Bip.” value (bipinnate beggarticks; postemergence, 125 g ai/ha) was 60, the “Plant response rating, Beggarticks, Bip.” value (bipinnate beggarticks; postemergence, 62 g ai/ha) was 40 and the “Plant response rating, Bermudagrass” value (bermudagrass; [1]) was 75. The “Plant response rating, Bermudagrass” value (bermudagrass; [2]) was 75, the “Plant response rating, Bermudagrass” value (bermudagrass; [4]) was 90 and the “Plant response rating, Bermudagrass” value (bermudagrass; [5]) was 95. The “Plant response rating, Bermudagrass” value (bermudagrass; [9]) was 95, the “Plant response rating, Bermudagrass” value (bermudagrass; [6]) was 95 and the “Plant response rating, Bermudagrass” value (bermudagrass; [7]) was 50. For the same molecule, the “Plant response rating, Bermudagrass” value (bermudagrass; [8]) was 20, the “Plant response rating, Bluegrass” value (annual bluegrass; [1]) was 95 and the “Plant response rating, Bluegrass” value (annual bluegrass; [2]) was 95. For the same molecule, the “Plant response rating, Bluegrass” value (annual bluegrass; [4]) was 95, the “Plant response rating, Bluegrass” value (annual bluegrass; [5]) was 95 and the “Plant response rating, Bluegrass” value (annual bluegrass; [9]) was 95. For the same molecule, the “Plant response rating, Bluegrass” value (annual bluegrass; [6]) was 100, the “Plant response rating, Bluegrass” value (annual bluegrass; [7]) was 95 and the “Plant response rating, Bluegrass” value (annual bluegrass; [8]) was 95. The “Plant response rating, Itchgrass” value (itchgrass; [1]) was 80, the “Plant response rating, Itchgrass” value (itchgrass; [2]) was 75 and the “Plant response rating, Itchgrass” value (itchgrass; [5]) was 75. For the same molecule, the “Plant response rating, Itchgrass” value (itchgrass; [9]) was 95, the “Plant response rating, Itchgrass” value (itchgrass; [6]) was 100 and the “Plant response rating, Itchgrass” value (itchgrass; [7]) was 70. For the same molecule, the “Plant response rating, Itchgrass” value (itchgrass; [8]) was 50, the “Plant response rating, Morningglory” value (pitted morningglory; [1]) was 20 and the “Plant response rating, Morningglory” value (pitted morningglory; [2]) was 20. The “Plant response rating, Morningglory” value (pitted morningglory; [4]) was 10, the “Plant response rating, Morningglory” value (pitted morningglory; [5]) was 10 and the “Plant response rating, Morningglory” value (pitted morningglory; [9]) was 40. For the same molecule, the “Plant response rating, Morningglory” value (pitted morningglory; [6]) was 70, the “Plant response rating, Morningglory” value (pitted morningglory; [7]) was 10 and the “Plant response rating, Morningglory” value (pitted morningglory; [8]) was 0. For the same molecule, the “Plant response rating, Surinam Grass” value (Surinam grass; [1]) was 85, the “Plant response rating, Surinam Grass” value (Surinam grass; [2]) was 80 and the “Plant response rating, Surinam Grass” value (Surinam grass; [4]) was 95. For the same molecule, the “Plant response rating, Surinam Grass” value (Surinam grass; [9]) was 100, the “Plant response rating, Surinam Grass” value (Surinam grass; [6]) was 100 and the “Plant response rating, Surinam Grass” value (Surinam grass; [7]) was 70. The “Plant response rating, Surinam Grass” value (Surinam grass; [8]) was 30, the “Plant response rating, Quackgrass” value (quackgrass; [1]) was 85 and the “Plant response rating, Quackgrass” value (quackgrass; [2]) was 85. For the same molecule, the “Plant response rating, Quackgrass” value (quackgrass; [4]) was 80, the “Plant response rating, Quackgrass” value (quackgrass; [5]) was 80 and the “Plant response rating, Quackgrass” value (quackgrass; [9]) was 95. The “Plant response rating, Quackgrass” value (quackgrass; [6]) was 95, the “Plant response rating, Quackgrass” value (quackgrass; [7]) was 80 and the “Plant response rating, Quackgrass” value (quackgrass; [8]) was 60. The “Plant response rating, Thistle” value (Russian thistle; [1]) was 80, the “Plant response rating, Thistle” value (Russian thistle; [2]) was 80 and the “Plant response rating, Thistle” value (Russian thistle; [4]) was 50. The “Plant response rating, Thistle” value (Russian thistle; [9]) was 100, the “Plant response rating, Thistle” value (Russian thistle; [6]) was 100 and the “Plant response rating, Sowthistle” value (common sowthistle; [1]) was 80. For the same molecule, the “Plant response rating, Sowthistle” value (common sowthistle; [4]) was 80, the “Plant response rating, Sowthistle” value (common sowthistle; [5]) was 95 and the “Plant response rating, Sowthistle” value (common sowthistle; [9]) was 100. The “Plant response rating, Sowthistle” value (common sowthistle; [6]) was 100, the “Plant response rating, Sowthistle” value (common sowthistle; [7]) was 60 and the “Plant response rating, Sowthistle” value (common sowthistle; [8]) was 60.
